Measurements as given in article PMC9506420, “Biological Evaluation of 3-Azaspiro[Bicyclo[3.1.0]Hexane-2,5′-Pyrimidines] as Potential Antitumor Agents” (International Journal of Molecular Sciences, 2022).
Where “and” joins values, the source holds several entries; their conditions need not be identical. Equal values may be shown once. Read-outs that look alike come from different tables or passages of the source.

Legend:
[1] = system: human erythroleukemia (K562) cell line; test: MTS antiproliferative (cytotoxicity) assay, K562; format: cell-based; conditions: for IC50: Homo sapiens; for SI (selectivity index), K562: Vero as reference cell line
Procedure: (§1) The cytotoxicity of synthesized 3-azaspiro[bicyclo[3.1.0]hexane-2,5′-pyrimidines] 4 against human erythroleukemia (K562), cervical carcinoma (HeLa), and T lymphocyte (Jurkat), as well as mouse colon carcinoma (CT26) and African green monkey kidney epithelial (Vero) cell lines as reference, was evaluated in vitro by the standard MTS assay for 24 and 72 h.
(§2) All the cell lines (human cervical carcinoma (HeLa), erythroleukemia (K-562), and T lymphocyte (Jurkat) as well as mouse colon carcinoma (CT26) and African green monkey kidney epithelial (Vero)) were obtained from the cell repository “Vertebrate cell culture collection” (supported by the Ministry of Science and Higher Education of the Russian Federation, agreement №075-15-2021-683, Institute of Cytology, Russian Academy of Sciences, Saint Petersburg, Russia). HeLa, Jurkat, and Vero cells were cultured in DMEM (HyClone, South Logan, UT, USA) supplemented with 10% (v/v) fetal bovine serum (Hyclone, GE Healthcare Life Sciences, Logan, UT, USA), and gentamicin (Sigma-Aldrich, St. Louis, MO, USA) at 37 °C in a humidified atmosphere with 5% CO2. K-562 and CT26 cells were grown at RPMI medium (Hyclone, GE Healthcare Life Sciences, Logan, UT, USA), with the same supplements and conditions.
(§3) To evaluate the in vitro toxicity of compounds synthesized, cells were seeded into 96-well plates at a density of 5 × 10^3 cells per well. On the next day, tested compounds were added to the wells at concentrations ranging from […], followed by incubation for 1 and 3 days. Cell proliferation was determined by adding 20 μL of MTS reagent (BioVision, Milpitas, CA, USA) stock solution per well. Each plate was incubated for 2 h at 37 °C in a humidified, 5% CO2 atmosphere. The plates were then read at 495 nm using plate spectrophotometer (Multiskan GO, Thermo Fisher Scientific, Waltham, MA, USA). All samples were measured in triplicates.

[2] = system: African green monkey kidney epithelial (Vero) cell line; test: MTS antiproliferative (cytotoxicity) assay, Vero (reference); format: cell-based; conditions: Chlorocebus sabaeus, Vero
Procedure: as §1, §2, §3

[3] = system: CT26 cells; test: Cell cycle distribution by flow cytometry (propidium iodide), CT26; format: cell-based, mouse; conditions: for SubG1 (%) / G2/M (%) / S (%) / G0/G1 (%): CT26, 10 μg/mL, 24 h; for SubG1 (%): control 3.6 ± 0.6; for G2/M (%): control 12.3 ± 0.9; for S (%): control 40.1 ± 1.5; for G0/G1 (%): control 44.0 ± 1.7; for cytostatic effect (cell cycle), CT26: CT26 cell line
Procedure: One of the indicators of the influence of biologically active products on the cells is the changed distribution of cells during different stages of the cell cycle. In this work, recently synthesized compounds were tested using flow cytometry for their effect on the distribution of cells in the cell cycle (G0/G1, G2/M, and S). Figure 8, Figure 9 and Figure 10 and Table 3 show the typical data after processing the results from three replicates of each experiment.
The distribution of HeLa and CT26 cells in the G0/G1-, S-, and G2/M-phases of the cell cycle was obtained by quantification of DNA content in propidium-iodide-stained cells using flow cytometry. Briefly, cells were seeded in 24-well plates at a density of 5 × 10^4 cells per well. After 24 h incubation, cells were exposed to 10 μg/mL of compounds 4c–i (the structure is provided in Scheme 1) for 24 h. The effects of compounds 4d, 4e, 4g, 4h were additionally tested at concentrations of 2 and 5 μg/mL. After incubation with drugs, the cells were detached by exposure to trypsin-EDTA for 5 min at 37 °C and then collected by pipetting. This was followed by treatment with 0.2 mg/mL saponin (Fluka, Waltham, MA, USA), 0.25 mg/mL RNase (Sigma-Aldrich, St. Louis, MO, USA), and 0.05 mg/mL propidium iodide (Invitrogen, Carlsbad, CA, USA). After washing, the samples were analyzed by standard flow cytometer (BD FACSCanto II, Becton Dickinson, San Jose, CA, USA). Then, 10,000 events were acquired for the sample. Data processing was performed using BD FACSDiva 9.0 software.

[4] = system: mouse colon carcinoma (CT26) cell line; test: MTS antiproliferative (cytotoxicity) assay, CT26; format: cell-based; conditions: for SI (selectivity index), CT26: Vero as reference cell line; for IC50: Mus musculus
Procedure: as §1, §2, §3

[5] = system: HeLa cells; test: Annexin V-FITC/DAPI cell death analysis, HeLa; format: cell-based, human; conditions: 10 μg/mL, 72 h; for Necrotic Cells, %: control 0.5 ± 0.3; for Early Apoptotic Cells, %: control 4.5 ± 0.7; for Late Apoptotic Cells, %: control 5.9 ± 0.4; for Live Cells, %: control 89.0 ± 0.7
Procedure: (§4) The results of cell death detection after the exposure of the HeLa and CT26 cell lines to spiro-fused cycloadducts 4c–i at a dose of 10 μg/mL for 72 h, using Annexin V-FITC/DAPI staining, are shown in Figure 6 and Figure 7, respectively.
(§5) Cells were seeded in 24-well plates, 5 × 10^4 cells per well. After 24 h incubation, cells were treated with compounds 4c–i for 72 h. Then, cells were washed, harvested by trypsinisation, stained with Annexin V-FITC ([…]) and DAPI (Thermo Fisher Scientific, Waltham, MA, USA), in accordance with the protocol of the manufacturer, and analyzed by flow cytometry. The proapoptotic effect of azaspiro[bicyclo[3.1.0]hexane-2,5′-pyrimidines] 4c–i was evaluated by an Annexin V-FITC/DAPI (AV/DAPI) dual-staining assay to examine the occurrence of phosphatidylserine externalization, which facilitated the detection of live cells (lower-left quadrant; AV−/DAPI−), early apoptotic cells (upper-left quadrant; AV+/DAPI−), late apoptotic cells (upper-right quadrant; AV+/DAPI+), and necrotic cells (lower-right quadrant; AV−/DAPI+).

[6] = system: CT26 cells; test: Annexin V-FITC/DAPI cell death analysis, CT26; format: cell-based, mouse; conditions: CT26, 10 μg/mL, 72 h; for Necrotic Cells, %: control 0.0 ± 0.0; for Late Apoptotic Cells, %: control 0.9 ± 0.4; for Early Apoptotic Cells, %: control 10.5 ± 0.7; for Live Cells, %: control 88.5 ± 1.1
Procedure: as §4, §5

[7] = system: human T lymphocyte (Jurkat) cell line; test: MTS antiproliferative (cytotoxicity) assay, Jurkat; format: cell-based; conditions: for IC50: Homo sapiens, MTS; for SI (selectivity index), Jurkat: Vero as reference cell line
Procedure: The cytotoxicity of synthesized 3-azaspiro[bicyclo[3.1.0]hexane-2,5′-pyrimidines] 4 against human erythroleukemia (K562), cervical carcinoma (HeLa), and T lymphocyte (Jurkat), as well as mouse colon carcinoma (CT26) and African green monkey kidney epithelial (Vero) cell lines as reference, was evaluated in vitro by the standard MTS assay for 24 and 72 h. The results are presented in Figure 1, Figure 2, Figure 3, Figure 4 and Figure 5 (data on all, tested on K562, HeLa, and CT26 cell lines’ compounds, are given at SI, Figures S1–S3). […] Replacement of the phenyl group by either the carboxymethyl or N-isopropylcarbamoyl group has led to a significant decrease in the activity of spiro-fused cycloadducts comprising azabicyclo[3.1.0]hexane and alloxane moieties.
as §2, §3

[8] = K562, 24 h, read-out: IC50, K562, 24 h
[9] = K562, 72 h, read-out: IC50, K562, 72 h
[10] = 24 h, read-out: IC50, Vero, 24 h
[11] = 72 h, read-out: IC50, Vero, 72 h
[12] = CT26, 24 h, read-out: IC50, CT26, 24 h
[13] = CT26, 72 h, read-out: IC50, CT26, 72 h
[14] = 24 h, read-out: IC50, Jurkat, 24 h
[15] = 72 h, read-out: IC50, Jurkat, 72 h

Structure (SMILES)	IC50 [1, 8]	IC50 [1, 9]	SI (selectivity index), K562 [1]	IC50 [2, 10]	IC50 [2, 11]	SubG1 (%) [3]	G2/M (%) [3]	S (%) [3]	G0/G1 (%) [3]	SI (selectivity index), CT26 [4]	IC50 [4, 12]	IC50 [4, 13]	Necrotic Cells, % [5]	Early Apoptotic Cells, % [5]	Live Cells, % [5]	Necrotic Cells, % [6]	Late Apoptotic Cells, % [6]	Early Apoptotic Cells, % [6]	Live Cells, % [6]	IC50 [7, 14]	other results
CCCCCC[C@@H]1NC2(C(=O)NC(=O)NC2=O)[C@]2(c3ccccc3)[C@@H](c3ccccc3)[C@]12c1ccccc1 [Compound 4g]	19 ± 2 µM	10 ± 2 µM	1.4	33 ± 6 µM	14 ± 2 µM	1.9 ± 0.5 %	19.4 ± 4.7 %	17.0 ± 4.3 %	61.7 ± 9.4 %	1.2	22 ± 2 µM	12 ± 2 µM	6.3 ± 2.8 %	38.5 ± 1.9 %	17.1% and 17.1 ± 3.5 %	0.3 ± 0.1 %	10.0 ± 0.3 %	5.5 ± 0.1 %	84.2 ± 0.3 %	11 ± 2 µM	Late Apoptotic Cells, % [5]: 38.0 ± 6.9 %; IC50 [7, 15]: 8 ± 2 µM; SI (selectivity index), Jurkat [7]: 1.8
CC[C@@H]1NC2(C(=O)NC(=O)NC2=O)[C@]2(c3ccccc3)[C@@H](c3ccccc3)[C@]12c1ccccc1 [Compound 4c]	12 ± 2 µM	5 ± 2 µM	3.2	47 ± 11 µM	16 ± 2 µM	2.0 ± 0.4 %	13.2 ± 2.9 %	16.3 ± 1.7 %	68.5 ± 3.0 %	0.8	27 ± 2 µM	20 ± 2 µM	2.2 ± 0.5 %	5.6 ± 1.3%	81.0 ± 4.4 %	1.8 ± 0.8 %	6.4 ± 1.0 %	1.9 ± 0.3 %	89.8 ± 0.5%	149 ± 33 µM	rate of cell death in HeLa vs control [5]: not different from the control; IC50 [7, 15]: 15 ± 2 µM; SI (selectivity index), Jurkat [7]: 1.1
CCCC[C@@H]1NC2(C(=O)NC(=O)NC2=O)[C@]2(c3ccccc3)[C@@H](c3ccccc3)[C@]12c1ccccc1 [Compound 4e]	17 ± 2 µM	4 ± 2 µM	2.5	23 ± 2 µM	10 ± 2 µM	19.3 ± 5.1 %	14.1 ± 9.4%	28.5 ± 1.8 %	38.1 ± 6.4 %	1.7	10 ± 2 µM	6 ± 2 µM	5.6 ± 2.6 %	18.1 ± 3.1 %	15.0% and 15.0 ± 2.7 %	1.4 ± 0.1 %	61.6 ± 0.5 %	23.4 ± 0.8 %	13.5% and 13.5 ± 0.4 %	12 ± 2 µM	cytostatic effect (cell cycle), CT26 [3]: best effect; Late Apoptotic Cells, % [5]: 61.3 ± 3.8 %; IC50 [7, 15]: 9 ± 2 µM; SI (selectivity index), Jurkat [7]: 1.2
O=C1NC(=O)C2(N[C@@H](c3ccccc3)[C@@]3(c4ccccc4)[C@H](c4ccccc4)[C@@]23c2ccccc2)C(=O)N1 [Compound 4i]	26 ± 4 µM	8 ± 4 µM	2.9	97 ± 12 µM	23 ± 4 µM	7.2 ± 2.2 %	22.4 ± 1.7 %	37.2 ± 0.2 %	33.2 ± 0.6 %	2.0	16 ± 2 µM	12 ± 2 µM	2.1 ± 0.9 %	12.6 ± 0.8 %	67.9% and 67.9 ± 2.4 %	0.4 ± 0.1 %	19.5 ± 0.5 %	4.0 ± 0.1 %	76.2 ± 0.3 %	19 ± 2 µM	cytostatic effect (cell cycle), CT26 [3]: best effect; Late Apoptotic Cells, % [5]: 17.3 ± 1.4 %; IC50 [7, 15]: 14 ± 4 µM; SI (selectivity index), Jurkat [7]: 1.7
